Values quoted from earlier work, collected in patent US20210401766A1, “Method of Using Cannabinoids Encapsulated in Phospholipid Carriers for Transmucosal and Transdermal Administration” (NuVessl, Inc., priority 2018, published 2021).

SMILES: C=C(C)[C@@H]1CCC(C)=C[C@H]1c1c(O)cc(CCCCC)cc1O [CBD, Cannabidiol]
- Duration of effects (oral administration): 5 to 8 h
- Bioavailability (oromucosal): approximately 35%
- Bioavailability (average) (smoking and vaporizing): around 40%
- Bioavailability (range) (smoking and vaporizing): 2%-56%
- Length of time CBD remains in the body (smoking and vaporizing): around 3 hours
